# Laboratory results taken from PMC3866151, “Phenylthiophenecarboxamide Antagonists of the Olfactory Receptor Co-Receptor Subunit from a Mosquito” (PLoS ONE, 2013).
# What was measured:
# [1] = molecular target: T1, Cqui\Orco+Cqui\Or21 (Culex quinquefasciatus, UniProt Q309I4); experiment: Antagonism of Orco agonist (OLC12) activation of the OR expressed in Xenopus oocytes, two-electrode voltage clamp; format: cell-based; conditions: for Antagonist activity compared with the parent analog or OX1a (second screen): 30 µM compound; for Antagonist activity compared with the parent analog or OX1a (second screen) / Inhibition of the OLC12 response compared with OX1a (screen): 3 µM OLC12; for IC50: read-out: IC50 for inhibition of Cqui\Orco+Cqui\Or21 activation by OLC12; for Inhibition of the OLC12 response compared with OX1a (screen): 100 µM compound; for Mechanism of inhibition of Orco agonist (OLC12) activation: OLC12 raised from 3 µM to 30 µM
# Description: (§1) Oocytes were surgically removed from mature Xenopus laevis frogs. Follicle cells were removed by treatment with Collagenase B (Boehringer Mannhem) for 2 hours at room temperature. Capped cRNA encoding each OR subunit was generated using mMessage mMachine kits (Ambion). For heteromeric ORs, 25 ng of cRNA encoding each OR subunit was injected into Stage V-VI Xenopus oocytes. For expression of Orco alone, 50 ng of cRNA was injected. Oocytes were incubated at 18°C in Barth's saline (in mM: 88 NaCl, 1 KCl, 2.4 NaHCO3, 0.3 CaNO3, 0.41 CaCl2, 0.82 MgSO4, 15 HEPES, pH 7.6, and 150 µg/ml ceftazidime) for 2–5 days prior to electrophysiological recording.
# (§2) Odorant and Orco ligand induced currents were recorded under two-electrode voltage clamp, using an automated parallel electrophysiology system (OpusExpress 6000A; Molecular Devices). Oocytes were perfused with ND96 (in mM: 96 NaCl, 2 KCl, 1 CaCl2, 1 MgCl2, 5 HEPES, pH 7.5). Orco ligands were prepared as 50 or 100 mM stock solutions in DMSO and then diluted into ND96 on the day of the experiment. Unless otherwise noted, applications were for 60 sec at a flow rate of 1.0 ml/min, with extensive washing in ND96 at 4.6 ml/min between applications. For the concentration-response protocol in Figure 1d , applications were for 20 sec at a flow rate of 1.65 ml/min. Micropipettes were filled with 3 M KCl and had resistances of 0.2–2.0 MΩ. The holding potential was -70 mV. Current responses, filtered (4-pole, Bessel, low pass) at 20 Hz (-3 db) and sampled at 100 Hz, were captured and stored using OpusXpress 1.1 software (Molecular Devices).
# (§3) To screen for antagonist activity, oocytes were exposed to 60 sec applications of OLC12 with 4 min washes between applications (Figures 1B, 3, 4 and 5A,C,E) or 60 sec applications of odorant with 20 min washes between applications (Figures 1C,D and 5B,D,F). Oocytes were then exposed to a 90 sec application of antagonist candidate, immediately followed by a 60 sec co-application of antagonist candidate and OLC12 or odorant. Oocytes were then exposed to a final 60 sec application of OLC12 or odorant. The current response in the presence of antagonist candidate was compared to the preceding responses to OLC12 or odorant alone.
# (§4) Initial analysis of electrophysiological data was done using Clampfit 9.1 software (Molecular Devices). Curve fitting and statistical analyses were done using Prism 5 (Graphpad). Concentration-response data were fit to the equation: I = Imax/(1+(EC50/X)^n) where I represents the current response at a given concentration of odorant, X; Imax is the maximal response; EC50 is the concentration of agonist yielding a half maximal response; n is the apparent Hill coefficient. Concentration-inhibition data were fit to the equation: I = Imax / (1+ (X/IC50)^n) where I represents the current response at a given concentration of inhibitor, X; Imax is the maximal response in the absence of inhibitor; IC50 is the concentration of inhibitor present that still allows a half maximal response from odorant; n is the apparent Hill coefficient. Statistical significance was assessed using a two-tailed unpaired t test, an F test, or a one-way analysis of variance followed by the Dunnett's post-test, as appropriate.
# [2] = molecular target: T1, Cqui\Orco+Cqui\Or21; experiment: Inhibition of odorant (3-methylindole) activation of the OR expressed in Xenopus oocytes, two-electrode voltage clamp; format: cell-based; conditions: for IC50: read-out: IC50 for inhibition of responses to 3MI; for Mechanism of inhibition of odorant activation: 10 nM, 100 nM, 1 µM 3-methylindole
# Description: as §1, §2, §3, §4
# [3] = activated by 3 µM OLC12, Xenopus oocytes
# T1 sequence (Q309I4 entry or part of it): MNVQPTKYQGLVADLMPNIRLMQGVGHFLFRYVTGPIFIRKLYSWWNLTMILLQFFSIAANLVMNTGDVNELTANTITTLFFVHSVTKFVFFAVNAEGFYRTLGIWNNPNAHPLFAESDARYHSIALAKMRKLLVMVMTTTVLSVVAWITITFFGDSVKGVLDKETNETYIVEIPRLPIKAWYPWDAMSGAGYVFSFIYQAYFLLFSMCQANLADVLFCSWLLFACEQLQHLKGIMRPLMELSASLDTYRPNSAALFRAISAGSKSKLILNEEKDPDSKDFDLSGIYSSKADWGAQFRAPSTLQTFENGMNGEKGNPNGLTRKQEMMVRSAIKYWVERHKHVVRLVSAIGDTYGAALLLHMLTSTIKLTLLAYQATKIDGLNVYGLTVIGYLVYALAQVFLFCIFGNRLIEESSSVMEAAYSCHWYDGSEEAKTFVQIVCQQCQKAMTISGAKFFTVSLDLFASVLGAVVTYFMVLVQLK
structure (smiles),measurement,setting,value
"O=C(NCc1ccccc1)c1cccs1 [OX3b, N-benzyl-2-thiophenecarboxamide]",Antagonist activity compared with the parent analog or OX1a (second screen),[1],well tolerated
same,nH (apparent Hill coefficient of concentration-inhibition curve),[1]; [3],1.1 ± 0.1
same,IC50,[1]; [3],5.1 ± 0.5 µM
"CCC(=O)c1ccc(NC(=O)c2cccs2)cc1 [OX1r, N-(4-propionylphenyl)-2-thiophenecarboxamide]",Antagonist activity compared with the parent analog or OX1a (second screen),[1],significant loss of antagonist activity
"O=C(Nc1cccc(Cl)c1)c1sccc1Cl [OX1q, 3-chloro-N-(3-chlorophenyl)-2-thiophenecarboxamide]",Antagonist activity compared with the parent analog or OX1a (second screen),[1],well tolerated
same,nH (apparent Hill coefficient of concentration-inhibition curve),[1]; [3],0.9 ± 0.1
same,IC50,[1]; [3],7.8 ± 0.9 µM
"Cc1cccc(NC(=O)c2sccc2Cl)c1 [OX1m, 3-chloro-N-(3-methylphenyl)-2-thiophenecarboxamide]",Inhibition of the OLC12 response compared with OX1a (screen),[1],improved antagonist activity
"CCCC(=O)c1ccc(NC(=O)c2cccs2)cc1 [OX1s, N-(4-butyrylphenyl)-2-thiophenecarboxamide]",Antagonist activity compared with the parent analog or OX1a (second screen),[1],significant loss of antagonist activity
"O=C(Nc1cccc(Br)c1)c1cccs1 [OX1f, N-(3-bromophenyl)-2-thiophenecarboxamide]",Inhibition of the OLC12 response compared with OX1a (screen),[1],significant improvement
"CCc1ccc(NC(=O)c2cccs2)cc1 [OX1a, N-(4-ethylphenyl)-2-thiophenecarboxamide]",IC50,[2]; 10 nM 3MI,47 ± 5 µM
same,Mechanism of inhibition of odorant activation,[2],non-competitive mechanism
same,IC50,[2]; 100 nM 3MI,42 ± 7 µM
same,IC50,[2]; 1 µM 3MI,50 ± 4 µM
same,Effect on maximal response to 3-methylindole,[2]; 50 µM OX1a co-applied,significantly reduced
same,Mechanism of inhibition of Orco agonist (OLC12) activation,[1],competitive antagonist
same,nH (apparent Hill coefficient of concentration-inhibition curve),[1]; [3],1.0 ± 0.1
same,IC50,[1]; [3],51 ± 6 µM
"O=C(Nc1cccc(Cl)c1)c1cccs1 [OX1g, N-(3-cholorphenyl)-2-thiophenecarboxamide]",Inhibition of the OLC12 response compared with OX1a (screen),[1],significant improvement
same,nH (apparent Hill coefficient of concentration-inhibition curve),[1]; [3],1.0 ± 0.1
same,IC50,[1]; [3],13 ± 1 µM
"COc1cccc(NC(=O)c2cccs2)c1 [OX1h, N-(3-methoxyphenyl)-2-thiophenecarboxamide]",Inhibition of the OLC12 response compared with OX1a (screen),[1],significantly improved antagonist activity
"CC(=O)c1cccc(NC(=O)c2cccs2)c1 [OX1i, N-(3-acetylphenyl)-2-thiophenecarboxamide]",Inhibition of the OLC12 response compared with OX1a (screen),[1],significantly improved antagonist activity
same,nH (apparent Hill coefficient of concentration-inhibition curve),[1]; [3],1.3 ± 0.1
same,IC50,[1]; [3],14 ± 1 µM
"CCN(C(=O)c1cccs1)c1ccccc1 [OX1n, N-ethyl-N-phenyl-2-thiophenecarboxamide]",Inhibition of the OLC12 response compared with OX1a (screen),[1],improved antagonist activity
"CCc1ccccc1NC(=O)c1cccs1 [OX1j, N-(2-ethylphenyl)-2-thiophenecarboxamide]",Inhibition of the OLC12 response compared with OX1a (screen),[1],significantly improved antagonist activity
same,nH (apparent Hill coefficient of concentration-inhibition curve),[1]; [3],0.9 ± 0.1
same,IC50,[1]; [3],5.4 ± 0.4 µM
"Cc1ccc(NC(=O)c2cccs2)cc1 [OX1b, N-(4-methylphenyl)-2-thiophenecarboxamide]",Inhibition of the OLC12 response compared with OX1a (screen),[1],significantly improved antagonist activity
"CCc1ccccc1NC(=O)C=Cc1cccs1 [OX4, N-(2-ethylphenyl)-3-(2-thienyl)-2-propenamide]",IC50,[2]; 10 nM 3MI,3.4 ± 0.6 µM
same,Mechanism of inhibition of odorant activation,[2],non-competitive mechanism
same,IC50,[2]; 100 nM 3MI,2.7 ± 0.4 µM
same,IC50,[2]; 1 µM 3MI,2.5 ± 0.3 µM
same,Antagonist activity compared with the parent analog or OX1a (second screen),[1],well tolerated
same,Mechanism of inhibition of Orco agonist (OLC12) activation,[1],competitive mechanism
same,nH (apparent Hill coefficient of concentration-inhibition curve),[1]; [3],0.9 ± 0.1
same,IC50,[1]; [3],2.1 ± 0.3 µM
same,IC50,[1]; activated by 10 µM OLC12,8.8 ± 1.2 µM
same,IC50,[1]; activated by 30 µM OLC12,73 ± 5 µM
"Cc1cccc(NC(=O)c2cccs2)c1C [OX1k, N-(2,3-dimethylphenyl)-2-thiophenecarboxamide]",Inhibition of the OLC12 response compared with OX1a (screen),[1],significantly improved antagonist activity
same,nH (apparent Hill coefficient of concentration-inhibition curve),[1]; [3],0.8 ± 0.1
same,IC50,[1]; [3],1.7 ± 0.2 µM
"Cc1cc(C)c(NC(=O)c2cccs2)c(C)c1 [OX1l, N-mesityl-2-thiophenecarboxamide]",IC50,[2]; 10 nM 3MI,17 ± 1 µM
same,Mechanism of inhibition of odorant activation,[2],non-competitive mechanism
same,IC50,[2]; 100 nM 3MI,16 ± 1 µM
same,IC50,[2]; 1 µM 3MI,19 ± 2 µM
same,Inhibition of the OLC12 response compared with OX1a (screen),[1],significantly improved antagonist activity
same,Mechanism of inhibition of Orco agonist (OLC12) activation,[1],competitive mechanism
same,nH (apparent Hill coefficient of concentration-inhibition curve),[1]; [3],1.5 ± 0.1
same,IC50,[1]; [3],3.8 ± 0.3 µM
same,IC50,[1]; activated by 10 µM OLC12,8.3 ± 0.5 µM
same,IC50,[1]; activated by 30 µM OLC12,24 ± 3 µM
"O=C(NC1CCCCC1)c1cccs1 [OX2, N-cyclohexyl-2-thiophenecarboxamide]",Inhibition of the OLC12 response compared with OX1a (screen),[1],failed to significantly improve antagonist activity
"Cc1cccc(NC(=O)c2cccs2)c1 [OX1c, N-(3-methylphenyl)-2-thiophenecarboxamide]",Inhibition of the OLC12 response compared with OX1a (screen),[1],significantly improved antagonist activity
"COc1ccc(NC(=O)c2cccs2)cc1 [OX1e, N-(4-methoxyphenyl)-2-thiophenecarboxamide]",Inhibition of the OLC12 response compared with OX1a (screen),[1],significantly improved antagonist activity
"Cc1ccc(NC(=O)c2sccc2Cl)c(C)c1 [OX1o, 3-chloro-N-(2,4-dimethylphenyl)-2-thiophenecarboxamide]",Antagonist activity compared with the parent analog or OX1a (second screen),[1],significant loss of antagonist activity
same,nH (apparent Hill coefficient of concentration-inhibition curve),[1]; [3],1.1 ± 0.1
same,IC50,[1]; [3],5.5 ± 0.7 µM
"Cc1ccc(CNC(=O)c2cccs2)cc1 [OX3a, N-(4-methylbenzyl)-2-thiophenecarboxamide]",IC50,[2]; 10 nM 3MI,2.6 ± 0.3 µM
same,Mechanism of inhibition of odorant activation,[2],non-competitive mechanism
same,IC50,[2]; 100 nM 3MI,2.3 ± 0.2 µM
same,IC50,[2]; 1 µM 3MI,1.9 ± 0.1 µM
same,Inhibition of the OLC12 response compared with OX1a (screen),[1],improved antagonist activity
same,Mechanism of inhibition of Orco agonist (OLC12) activation,[1],competitive mechanism
same,nH (apparent Hill coefficient of concentration-inhibition curve),[1]; [3],1.0 ± 0.1
same,IC50,[1]; [3],1.7 ± 0.2 µM
same,IC50,[1]; activated by 10 µM OLC12,12 ± 1 µM
same,IC50,[1]; activated by 30 µM OLC12,28 ± 2 µM
"O=C(Nc1ccc(Br)cc1)c1cccs1 [OX1d, N-(4-bromophenyl)-2-thiophenecarboxamide]",Inhibition of the OLC12 response compared with OX1a (screen),[1],failed to significantly improve antagonist activity
"Cc1cccc(C)c1NC(=O)c1sccc1Cl [OX1p, 3-chloro-N-(2,6-dimethylphenyl)-2-thiophenecarboxamide]",Antagonist activity compared with the parent analog or OX1a (second screen),[1],significant loss of antagonist activity
same,nH (apparent Hill coefficient of concentration-inhibition curve),[1]; [3],1.2 ± 0.1
same,IC50,[1]; [3],7.2 ± 0.6 µM
